Data on 8 compounds can be found in ChEMBL document CHEMBL1123443, “Synthesis and evaluation of 1-(arylsulfonyl)-2-[(methoxycarbonyl)sulfenyl]-1-methylhydrazines++ + as antineoplastic agents” (1986).

Holding throughout (assay type): functional, Mus musculus
For experiment [1], the system named is B16. Description: Effect of compound on the body weight of mice bearing the B16 melanoma at a daily dose of 12.5 mg/kg.
Experiment [2] has as its system B16. Description: Effect of compound on the survival time of mice bearing the B16 melanoma at a daily dose (mg/kg) of 50.
Experiment [3] relates to B16. Description: Effect of compound on the survival time of mice bearing the B16 melanoma at a daily dose of 12.5 mg/kg.
For experiment [4], the system named is B16. In words: Effect of compound on the survival time of mice bearing the B16 melanoma at a daily dose of 25 mg/kg.
Experiment [5] has as its system B16. In words: Effect of compound on the body weight of mice bearing the B16 melanoma at a daily dose of 25 mg/kg.
The test system of experiment [6] is B16. Description: Effect of compound on the body weight of mice bearing the B16 melanoma at a daily dose of 50 mg/kg.
The test system of experiment [7] is L1210. Description: Effect of compound on the survival time of mice bearing the L1210 leukemia at a daily dose (mg/kg) of 12.5-50.
For experiment [8], the system named is L1210. In words: Effect of compound on the body weight of mice bearing the L1210 leukemia at a daily dose of 12.5-50 mg/kg.
Experiment [9] has as its system B16. In words: Effect of compound on the survival time of mice bearing the B16 melanoma at a daily dose of 50 mg/kg.
Experiment [10] concerns L1210. Description: Effect of compound on the survival time of mice bearing the L1210 leukemia at a daily dose of 12.5-50 mg/kg.
In experiment [11] the test system is B16. In words: Effect of compound on the body weight of mice bearing the B16 melanoma at a daily dose of 100 mg/kg.
Experiment [12] concerns B16. In words: Effect of compound on the survival time of mice bearing the B16 melanoma at a daily dose (mg/kg) of,50.
Experiment [13] relates to B16. Description: Effect of compound on the survival time of mice bearing the B16 melanoma at a daily dose of 100 mg/kg.
For experiment [14], the system named is B16. In words: Effect of compound on the survival time of mice bearing the B16 melanoma at a daily dose of 150 mg/kg.
In experiment [15] the test system is B16. Description: Effect of compound on the body weight of mice bearing the B16 melanoma at a daily dose of 150 mg/kg.

`COC(=O)SNN(C)S(=O)(=O)c1ccc(OC)cc1`: the Change in weight with B16 [1] is recorded as -0.2%; with B16 [5] it was -6.4%; with B16 [6], -18.7%; in the experiment on L1210 [8], -6.7%. For the same compound, the T/C came to 177% in the experiment on B16 [2], 148% in the experiment with B16 [3], 160% in the experiment on B16 [4] and 149% with L1210 [7].

As for `COC(=O)SNN(C)S(=O)(=O)c1ccc2ccccc2c1`, the Change in weight is on record as -0.2% in the experiment with B16 [1], 1.4% with B16 [5] and -4.8% in the experiment on B16 [6]. Also, the T/C amounted to 163% in the experiment on B16 [2], 123% with B16 [3] and 140% in the experiment with B16 [4].

Regarding `COC(=O)SNN(C)S(=O)(=O)c1ccc(Br)cc1`, the Change in weight is on record as -2% in the experiment with B16 [1], -5.5% in the experiment on B16 [5], -11.4% with B16 [6] and -0.2% in the experiment with L1210 [8]. Besides, the T/C with B16 [2] was found to be 160%; in the experiment on B16 [3], 144%; in the experiment with B16 [4] it was 146%; with L1210 [7], 122%.

`COC(=O)SNN(C)S(=O)(=O)c1ccccc1`: the Change in weight is -5.2% with B16 [1], -13% in the experiment with B16 [5], -33.4% in the experiment with B16 [6] and -10.9% in the experiment with L1210 [8]. The T/C with B16 [3] stood at 169%; in the experiment with B16 [4], 183%; with B16 [9], 49%; in the experiment with L1210 [10], 113%.

Turning to `COC(=O)SNN(C)S(=O)(=O)c1ccc(C)cc1`, the Change in weight is recorded as 0.7% with B16 [1], -3.3% with B16 [5], -17.7% with B16 [6] and -4.2% with L1210 [8]. In addition, the T/C in the experiment with B16 [2] turned out to be 232%; with B16 [3], 182%; with B16 [4] it was 199%; in the experiment with L1210 [7], 118%.

On to `COC(=O)SNNS(=O)(=O)c1ccc(C)cc1`, for which the figures for the Change in weight in the experiment with B16 [1], with B16 [5] and in the experiment on B16 [6] were 1.6%, 3.7% and -0.4%, respectively. For the same compound, the results for the T/C with B16 [2], in the experiment on B16 [3] and in the experiment on B16 [4] were 98%, 100% and 113%, respectively.

As to `COC(=O)SNN(C)S(=O)(=O)Cc1ccccc1`, the Change in weight was -2.5% in the experiment with B16 [1], -14.8% in the experiment with B16 [5], -27.4% in the experiment with B16 [6] and -8% in the experiment on L1210 [8]. The T/C with B16 [2] was 59%; with B16 [3] it was 152%; with B16 [4] it was 157%; in the experiment with L1210 [7], 100%.

On to `CN(C)/N=N/c1[nH]cnc1C(N)=O` [DACARBAZINE], for which the Change in weight with B16 [11] is listed as -4.4%; with B16 [1], -2.3%; in the experiment with B16 [15], -5.7%. Also, the T/C in the experiment with B16 [12] amounted to 135%; in the experiment on B16 [13] it was 161%; with B16 [14] it was 177%.

Usually T/C stands for the ratio of treated to control.
